Patent US12649723B2, “Carbonohydrazonoyl dicyanide compounds comprising 2 or more aryl or heteroaryl connected via linker and use thereof” (KOREA INSTITUTE OF SCIENCE AND TECHNOLOGY, priority 2020, dated 2026)

Key:
tau protein = biological target: T1, tau protein (Homo sapiens, UniProt P10636); assay: Tau-BiFC cell model: inhibition of tau protein aggregation; format: cell-based; conditions: for remaining activity at 10 µM: read-out: Response (% @10 μM); for IC50: Tau BiFC in cells, with Forskolin 30 μM, 48 hours
T1 construct: fused on or other part: Split fluorescent-protein halves for BiFC are fused to tau; In the published tau-BiFC line these are Venus VN173 and VC155
T1 sequence (P10636 2-441 isoform P10636-8 limits assumed): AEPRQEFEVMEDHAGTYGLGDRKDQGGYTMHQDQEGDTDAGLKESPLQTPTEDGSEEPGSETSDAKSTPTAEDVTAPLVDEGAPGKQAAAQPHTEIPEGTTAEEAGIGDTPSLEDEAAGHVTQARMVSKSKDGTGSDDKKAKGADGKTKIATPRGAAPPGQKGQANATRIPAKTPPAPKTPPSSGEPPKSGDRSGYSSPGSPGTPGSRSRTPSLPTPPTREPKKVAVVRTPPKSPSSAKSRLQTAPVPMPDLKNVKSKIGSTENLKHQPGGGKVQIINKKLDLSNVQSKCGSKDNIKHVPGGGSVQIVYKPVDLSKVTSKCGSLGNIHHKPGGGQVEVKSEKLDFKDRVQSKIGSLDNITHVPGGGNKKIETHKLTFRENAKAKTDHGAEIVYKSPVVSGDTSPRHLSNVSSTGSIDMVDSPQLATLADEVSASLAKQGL
Method in brief: (§1)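 Tau-BiFC cells were exposed for 48 h to compound (1, 3, 10 μM for screening; 0.03–30 μM for dose-response) plus 30 μM Forskolin to induce aggregation. BiFC fluorescence was normalised to Forskolin-only minus untreated controls, with IC50 from nonlinear regression. Viability was Hoechst-stained nuclei counts relative to Forskolin-only wells.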

Tau-BiFC cells = assay: Cell viability (cytotoxicity) in tau-BiFC cells, count of stained nuclei; format: cell-based; conditions: Forskolin-only group = 100% cell viability; for Cell viability (% @10 μM): compound 10 μM
Method in brief: as §1

[1] = Liver microsome stability; format: in vitro ADME, human; conditions: amount of substrate remaining; compound 1 μM, 30 minutes, 37° C., NADPH
Description: The stability of liver microsomes due to the compounds prepared according to Examples 1 to 175 was confirmed. Specifically, four types of liver microsomes (human, dog, rat, and mouse, each 0.25 mg/mL), a 0.1 M phosphate buffer solution (pH 7.4), and each of the compounds at a concentration of 1 μM were mixed and pre-cultured at 37° C. for 5 minutes and further cultured at 37° C. for 30 minutes together with an NADPH generation system solution added thereto. Thereafter, the reaction was terminated by adding an acetonitrile solution containing an internal standard material (chloropropamide) and centrifuged for 5 minutes (14,000 rpm, 4° C.), and then a supernatant was injected into an LC-MS/MS system for analysis of substrate drugs to thereby evaluate metabolic stability due to 8 types of compounds.
The amount of the substrate remaining after the reaction was analyzed using the Shimadzu Nexera XR system and TSQ Vantage (Thermo). In an HPLC column, Kinetex XB-C18 (2.1 mm×100 mm, particle size of 2.6 μm; Phenomenex, USA) was used, and mobile phases were (A) distilled water containing 0.1% formic acid and (B) acetonitrile containing 0.1% formic acid. Analyst software (version 1.6.3) and Xcalibur (version 1.6.1) were used for data analysis.

[2] = 48 h, compound 10 μM, BiFC fluorescence, Forskolin-only group = 100% tau protein-aggregated state

| Compound | remaining activity at 10 µM (tau protein; [2]) [%] | IC50 (tau protein) [nM] | Cell viability (% @10 μM) (Tau-BiFC cells) [%] | Response (% @10 μM) (tau protein; compound 10 μM, BiFC fluorescence, Forskolin-only group = 100% tau protein-aggregated state) [%] | Human (%) [1] [%] | remaining activity at 3 µM (tau protein; 48 h, compounds marked *: measured at 3 μM, Forskolin-only group = 100% tau protein-aggregated state, read-out: Response) [%] | Cell viability (Tau-BiFC cells; compounds marked *: measured at 3 μM) [%] |
| --- | --- | --- | --- | --- | --- | --- | --- |
| N#CC(C#N)=NNc1ccc(NC(=O)c2cocn2)nc1 [Compound 113, (6-(oxazole-4-carboxamido)pyridin-3-yl)carbonohydrazonoyl dicyanide] | 0 | 200 | 147 | – | – | – | – |
| Cc1ccc(C(=O)Nc2ccc(NN=C(C#N)C#N)cn2)cc1F [Compound 22, (6-(3-fluoro-4-methylbenzamido)pyridin-3-yl)carbonohydrazonoyl dicyanide] | 0 | 320 | 105.8 | – | – | – | – |
| N#CC(C#N)=NNc1ccc(Oc2cccnc2)cc1 [Compound 85, (4-(pyridin-3-yloxy)phenyl)carbonohydrazonoyl dicyanide] | 0 | 1580 | 99.1 | – | – | – | – |
| (2-methoxy-4-(5-methylpyrazine-2-carboxamido)phenyl)carbonohydrazonoyl dicyanide [Compound 4] | – | – | 67 | 30.7 | – | – | – |
| COc1ccc(NC(=O)c2ccc(NN=C(C#N)C#N)cc2OC)cc1 [Compound 109, (3-methoxy-4-(4-methoxyphenylcarbamoyl)phenyl)carbonohydrazonoyl Dicyanide] | 0 | 1400 | 141.8 | – | – | – | – |
| N#CC(C#N)=NNc1ccc(NC(=O)c2nc3ccccc3s2)nc1 [Compound 31, (6-(benzo[d]thiazole-2-carboxamido)pyridin-3-yl)carbonohydrazonoyl dicyanide] | 0 | 540 | 114.3 | – | 28.7 | – | – |
| CN(N=C(C#N)C#N)c1ccc(Oc2ccccc2)cn1 [Compound 75, methyl(5-phenoxypyridin-2-yl)carbonohydrazonoyl dicyanide] | 102 | – | 131.4 | – | – | – | – |
| N#CC(C#N)=NNc1ccc(Oc2cncnc2)c(F)c1 [Compound 82, (3-fluoro-4-(pyrimidin-5-yloxy)phenyl)carbonohydrazonoyl dicyanide] | 0 | 2960 | 126.4 | – | – | – | – |
| Cc1cc(C(=O)Nc2ccc(NN=C(C#N)C#N)cn2)ccc1F [Compound 21, (6-(4-fluoro-3-methylbenzamido)pyridin-3-yl)carbonohydrazonoyl dicyanide] | 0 | 750 | 104.3 | – | – | – | – |
| N#CC(C#N)=NNc1ccc(NC(=O)c2ccon2)nc1 [Compound 115, (6-(isoxazole-3-carboxamido)pyridin-3-yl)carbonohydrazonoyl dicyanide] | 0 | 600 | 157.6 | – | – | – | – |
| Cc1ccc(COc2ccc(NN=C(C#N)C#N)cc2C)cc1 [Compound 142, (3-methyl-4-(4-methylbenzyloxy)phenyl)carbonohydrazonoyl dicyanide] | – | 1610 | – | – | – | -5 | 111 |
| Cc1ccccc1C(=O)Nc1ccc(NN=C(C#N)C#N)cn1 [Compound 25, (6-(2-methylbenzamido)pyridin-3-yl)carbonohydrazonoyl dicyanide] | 0 | 390 | 122.4 | – | – | – | – |
| Cc1cnc(C(=O)Nc2nc3ncc(NN=C(C#N)C#N)cc3s2)cn1 [Compound 33, (2-(5-methylpyrazine-2-carboxamido)thiazolo[4,5-b]pyridin-6-yl)carbonohydrazonoyl dicyanide] | 63.9 | – | 125 | – | – | – | – |
| CN(N=C(C#N)C#N)c1ccc(Oc2cccc(F)c2)nc1 [Compound 76, (6-(3-fluorophenoxy)pyridin-3-yl)(methyl)carbonohydrazonoyl dicyanide] | 79.9 | – | 121.7 | – | – | – | – |
| Cc1cc(NN=C(C#N)C#N)ccc1Oc1cncnc1 [Compound 81, (3-methyl-4-(pyrimidin-5-yloxy)phenyl)carbonohydrazonoyl dicyanide] | 0 | 550 | 116.2 | – | – | – | – |
| N#CC(C#N)=NNc1ccc(OCc2ccc(C(F)(F)F)cc2)c(C(F)(F)F)c1 [Compound 98, (3-(trifluoromethyl)-4-(4-(trifluoromethyl)benzyloxy)phenyl)carbonohydrazonoyl dicyanide] | 0 | 250 | 26.9 | – | – | – | – |

| Compound | remaining activity at 10 µM (tau protein; [2]) [%] | IC50 (tau protein) [nM] | Cell viability (% @10 μM) (Tau-BiFC cells) [%] | Response (% @10 μM) (tau protein; compound 10 μM, BiFC fluorescence, Forskolin-only group = 100% tau protein-aggregated state) [%] | Human (%) [1] [%] | remaining activity at 3 µM (tau protein; 48 h, compounds marked *: measured at 3 μM, Forskolin-only group = 100% tau protein-aggregated state, read-out: Response) [%] | Cell viability (Tau-BiFC cells; compounds marked *: measured at 3 μM) [%] |
| --- | --- | --- | --- | --- | --- | --- | --- |
| N#CC(C#N)=NNc1ccc(OCc2ccccc2)c(C(F)(F)F)c1 [Compound 97, (4-(benzyloxy)-3-(trifluoromethyl)phenyl)carbonohydrazonoyl dicyanide] | 0 | 100 | 27.1 | – | – | – | – |
| N#CC(C#N)=NNc1ccc(OCCc2ccc(Cl)cc2)nc1 [Compound 131, (6-(4-chlorophenethoxy)pyridin-3-yl)carbonohydrazonoyl dicyanide] | 10.6 | – | 33.4 | – | – | – | – |
| N#CC(C#N)=NNc1ccc(Oc2ccccc2)c(F)c1 [Compound 71, (3-fluoro-4-phenoxyphenyl)carbonohydrazonoyl dicyanide] | 0 | – | 46 | – | – | – | – |
| Cc1ccc(COc2ccc(NN=C(C#N)C#N)cc2C(F)(F)F)cc1 [Compound 132, (4-(4-methylbenzyloxy)-3-(trifluoromethyl)phenyl)carbonohydrazonoyl dicyanide] | 0 | – | 39.2 | – | – | – | – |
| N#CC(C#N)=NNc1ccc(Oc2ccccc2F)cc1 [Compound 93, (4-(2-fluorophenoxy)phenyl)carbonohydrazonoyl dicyanide] | 0 | 1290 | 66.5 | – | – | – | – |
| COc1ccc(NS(=O)(=O)c2ccc(NN=C(C#N)C#N)cc2)cc1 [Compound 66, (4-(N-(4-methoxyphenyl)sulfamoyl)phenyl)carbonohydrazonoyl dicyanide] | 61.2 | – | 123.9 | – | – | – | – |
| N#CC(C#N)=NNc1ccc(Oc2nccs2)cc1 [Compound 116, (4-(thiazol-2-yloxy)phenyl)carbonohydrazonoyl dicyanide] | 0 | 1400 | 124 | – | – | – | – |
| N#CC(C#N)=NNc1ccc(OCc2nc3ccccc3o2)cc1 [Compound 128, (4-(benzo[d]oxazol-2-ylmethoxy)phenyl)carbonohydrazonoyl dicyanide] | 0 | 300 | 108.5 | – | – | – | – |
| N#CC(C#N)=NNc1ccc(OCCc2ccc(C(F)(F)F)cc2)cc1 [Compound 121, (4-(4-(trifluoromethyl)phenethoxy)phenyl)carbonohydrazonoyl dicyanide] | 3.4 | 4610 | 72.7 | – | – | – | – |
| N#CC(C#N)=NNc1ccc(OCc2ccccc2)cc1 [Compound 117, (4-(benzyloxy)phenyl)carbonohydrazonoyl Dicyanide] | 16.6 | 1240 | 126.0 | – | – | – | – |
| N#CC(C#N)=NNc1ccc(NC(=O)c2ccccc2F)nc1 [Compound 17, (6-(2-fluorobenzamido)pyridin-3-yl)carbonohydrazonoyl dicyanide] | 0 | 310 | 102.7 | – | – | – | – |
| COc1cc(NN=C(C#N)C#N)ccc1C(=O)Nc1ccc(C)cc1 [Compound 108, (3-methoxy-4-(p-tolylcarbamoyl)phenyl)carbonohydrazonoyl Dicyanide] | 0 | 1400 | 121.8 | – | – | – | – |
| Cc1cc(NN=C(C#N)C#N)ccc1NC(=O)c1cscn1 [Compound 111, (3-methyl-4-(thiazole-4-carboxamido)phenyl)carbonohydrazonoyl dicyanide] | 0 | 500 | 136.4 | – | – | – | – |
| N#CC(C#N)=NNc1ccc(Oc2ccncc2)c(F)c1 [Compound 80, (3-fluoro-4-(pyridin-4-yloxy)phenyl)carbonohydrazonoyl dicyanide] | 68 | – | 112.3 | – | – | – | – |
| N#CC(C#N)=NNc1ccc(OCCc2ccc(Cl)cc2)cc1 [Compound 123, (4-(4-chlorophenethoxy)phenyl)carbonohydrazonoyl dicyanide] | 0 | 780 | 34.6 | – | – | – | – |
